Three molecules from PubChem BioAssay AID588677 (The Scripps Research Institute Molecular Screening Center, 2011) can be followed below.

What is called inhibition is the drop in the measured response relative to a control, in per cent.

The experiment concerns the target Epidermal growth factor receptor (Homo sapiens) (UniProt P00533). The experiment in a line: decrease of p-EGFR levels in colorectal cells – SW620 cells, chemiluminescent western blot, powder samples, counter-screen for KLF5 inhibitor project, late-stage follow-up (AID 588677). The note with it: 24 h, at 10 µM; for fold change: measured here: p-EGFR band fold change vs DMSO. In general terms: Immunoblotting shows a protein as a band on a membrane.

The source made the active and inactive calls.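 Rule for the calls: active = phosphorylated EGFR protein level shifted down or up by at least 30% versus solvent-only treated cells; inactive = shift under 30% in either direction.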

Chain of Epidermal growth factor receptor (Homo sapiens) (P00533 whole entry, looked up): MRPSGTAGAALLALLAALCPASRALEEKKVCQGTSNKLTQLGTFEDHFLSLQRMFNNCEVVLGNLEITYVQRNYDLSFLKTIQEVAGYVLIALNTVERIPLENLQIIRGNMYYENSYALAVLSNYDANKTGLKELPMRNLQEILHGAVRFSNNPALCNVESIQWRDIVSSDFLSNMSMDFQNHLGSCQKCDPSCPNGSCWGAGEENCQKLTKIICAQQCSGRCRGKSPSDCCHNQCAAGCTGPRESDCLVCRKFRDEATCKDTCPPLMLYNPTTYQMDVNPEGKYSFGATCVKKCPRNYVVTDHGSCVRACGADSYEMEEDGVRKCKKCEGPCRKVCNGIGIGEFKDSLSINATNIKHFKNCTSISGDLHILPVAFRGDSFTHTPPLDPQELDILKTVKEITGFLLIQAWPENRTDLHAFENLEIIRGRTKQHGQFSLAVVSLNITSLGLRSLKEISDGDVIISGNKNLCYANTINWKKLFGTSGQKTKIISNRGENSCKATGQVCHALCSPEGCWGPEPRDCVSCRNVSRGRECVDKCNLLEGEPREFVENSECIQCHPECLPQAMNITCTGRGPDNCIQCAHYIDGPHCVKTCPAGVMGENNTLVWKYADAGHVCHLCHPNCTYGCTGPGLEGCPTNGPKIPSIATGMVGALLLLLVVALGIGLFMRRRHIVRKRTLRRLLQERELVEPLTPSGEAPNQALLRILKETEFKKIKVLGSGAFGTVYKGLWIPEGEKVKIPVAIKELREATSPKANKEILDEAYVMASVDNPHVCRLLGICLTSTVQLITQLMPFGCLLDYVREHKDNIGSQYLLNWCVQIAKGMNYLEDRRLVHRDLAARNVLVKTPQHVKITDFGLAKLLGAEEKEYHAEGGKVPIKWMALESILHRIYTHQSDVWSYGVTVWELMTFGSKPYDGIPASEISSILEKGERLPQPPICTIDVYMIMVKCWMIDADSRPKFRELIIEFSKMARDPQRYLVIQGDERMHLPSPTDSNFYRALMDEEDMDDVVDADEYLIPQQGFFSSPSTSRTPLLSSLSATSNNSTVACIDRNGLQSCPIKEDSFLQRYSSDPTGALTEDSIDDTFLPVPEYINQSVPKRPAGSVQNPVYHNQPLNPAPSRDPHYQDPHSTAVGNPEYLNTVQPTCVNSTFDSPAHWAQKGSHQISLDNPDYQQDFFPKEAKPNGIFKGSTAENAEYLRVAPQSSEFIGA

As for `CN(C(=O)CNC(=O)/C=C/c1cccc(Cl)c1)C1CCS(=O)(=O)C1` (stereo not given), the inhibition was 20% (inactive) and the fold change was -1.25.

Consider `CN(C(=O)CNC(=O)/C=C/c1cccc(Cl)c1)C1CCS(=O)(=O)CC1`, for which the fold change is 14.2.

Regarding `CN(C(=O)COC(=O)/C=C/c1cccc([N+](=O)[O-])c1)C1CCS(=O)(=O)C1` (stereo not given), the inhibition is -71.5% and the fold change is 1.72.
